From patent US20050181376A1, “Antisense modulation of microsomal triglyceride transfer protein expression” (ISIS Pharmaceuticals, Inc., priority 2001, published 2005)
Strand notation (5' to 3'): a small letter for the sugar, then the base; units joined by * are phosphorothioate-linked, units joined directly phosphodiester-linked; [ ] holds rarer units or linkages, { } end groups; capitals alone tell only the bases. e = 2'-O-(2-methoxyethyl) (MOE); [5mC] = 5-methylcytosine; d = 2'-deoxy (DNA)

Test system: mouse microsomal triglyceride transfer protein mRNA
Experiment: Antisense inhibition of mouse microsomal triglyceride transfer protein mRNA levels in primary hepatocytes, quantitative real-time PCR
Assay type: cell-based
Parameters: concentration or dose not given beside the values
Details: averages from two experiments
Method: Primary mouse hepatocytes were prepared from CD-1 mice purchased from Charles River Labs (Wilmington, Mass.) and were routinely cultured in Hepatocyte Attachment Media (Gibco) supplemented with 10% Fetal Bovine Serum (Gibco/Life Technologies, Gaithersburg, Md.), 250 nM dexamethasone (Sigma), and 10 nM bovine insulin (Sigma). Cells were seeded into 96-well plates (Falcon-Primaria #3872) at a density of 10000 cells/well for use in RT-PCR analysis.
Cells were harvested 16-24 hours after oligonucleotide treatment.
All cytidine residues are 5-methylcytidines. […] Data are averages from two experiments. If present, “N.D.” indicates “no data”.

| Substance | % INHIB (inhibition of mouse microsomal triglyceride transfer protein mRNA levels) |
| --- | --- |
| 144472 (eG*e[5mC]*e[5mC]*e[5mC]*eT*dG*dG*dA*dA*dG*dA*dT*dG*d[5mC]*dT*e[5mC]*eT*eT*e[5mC]*eT; antisense) [compound 144472] | 0% |
| 144505 (eA*eG*e[5mC]*e[5mC]*eT*dT*dG*dT*d[5mC]*d[5mC]*dA*dT*d[5mC]*dT*dG*e[5mC]*eA*eT*eG*e[5mC]; antisense) [compound 144505] | 24% |
| 144500 (e[5mC]*e[5mC]*e[5mC]*eT*eT*dT*d[5mC]*dA*d[5mC]*d[5mC]*dA*d[5mC]*dG*d[5mC]*dT*eG*eA*e[5mC]*eA*eG; antisense) [compound 144500] | 34% |
| 144479 (e[5mC]*eA*e[5mC]*e[5mC]*eT*dG*d[5mC]*d[5mC]*dA*d[5mC]*dT*dT*dG*d[5mC]*dT*eT*e[5mC]*e[5mC]*e[5mC]*eG; antisense) [compound 144479] | 65% |
| ATTCTGACACAGCTTCCTGA (all phosphorothioate, sugars by position and methylation of C not given here; 2'-MOE wings and deoxy gap) [ISIS 144486, 2′-MOE gapmer phosphorothioate antisense oligonucleotide to mouse MTP] | at least 30% |
| 144483 (e[5mC]*eA*eG*eA*eG*dG*dT*dG*dA*d[5mC]*dG*dG*d[5mC]*dA*dT*e[5mC]*e[5mC]*eA*e[5mC]*e[5mC]; antisense) [compound 144483] | 22% |
| 144486 (eA*eT*eT*e[5mC]*eT*dG*dA*d[5mC]*dA*d[5mC]*dA*dG*d[5mC]*dT*dT*e[5mC]*e[5mC]*eT*eG*eA; antisense) [compound 144486] | 34% |
| 144506 (e[5mC]*eA*e[5mC]*eA*eT*d[5mC]*d[5mC]*dG*dG*d[5mC]*d[5mC]*dA*d[5mC]*dT*dA*eG*eG*e[5mC]*eT*e[5mC]; antisense) [compound 144506] | 0% |
| 144502 (e[5mC]*eT*e[5mC]*eG*e[5mC]*dG*dA*dT*dA*d[5mC]*d[5mC]*dA*d[5mC]*dA*dG*eA*e[5mC]*eT*eG*eA; antisense) [compound 144502] | 51% |
| 144477 (e[5mC]*e[5mC]*e[5mC]*eA*eG*d[5mC]*dA*d[5mC]*d[5mC]*dT*dG*dG*dT*dT*dT*eG*e[5mC]*e[5mC]*eG*eT; antisense) [compound 144477] | 94% |
| GACCACCCTGGATCTCCATA (all phosphorothioate, sugars by position and methylation of C not given here; 2'-MOE wings and deoxy gap) [ISIS 144501, 2′-MOE gapmer phosphorothioate antisense oligonucleotide to mouse MTP] | at least 30% |
| 144499 (e[5mC]*eG*e[5mC]*eT*eG*dA*d[5mC]*dA*dG*dG*dG*dT*d[5mC]*dG*d[5mC]*e[5mC]*eG*eG*eA*eT; antisense) [compound 144499] | 38% |
| 144493 (eG*e[5mC]*e[5mC]*eA*eG*dT*dA*dT*dA*dG*dG*d[5mC]*dA*dG*dA*eA*eG*eA*eG*eG; antisense) [compound 144493] | 24% |
| 144468 (eG*eA*eT*e[5mC]*eA*dT*dG*d[5mC]*dT*dG*dG*d[5mC]*dT*d[5mC]*d[5mC]*e[5mC]*eT*e[5mC]*eT*eG; antisense) [compound 144468] | 0% |
| 144507 (eT*e[5mC]*eT*e[5mC]*eA*dG*dA*dG*dT*dT*d[5mC]*dT*dG*dT*dT*eG*eA*eT*eG*eG; antisense) [compound 144507] | 0% |
| CCCAGCACCTGGTTTGCCGT (all phosphorothioate, sugars by position and methylation of C not given here; 2'-MOE wings and deoxy gap) [ISIS 144477, 2′-MOE gapmer phosphorothioate antisense oligonucleotide to mouse MTP] | at least 30% |
| GCTCGAGGACCTGTCCCACA (all phosphorothioate, sugars by position and methylation of C not given here; 2'-MOE wings and deoxy gap) [ISIS 144480, 2′-MOE gapmer phosphorothioate antisense oligonucleotide to mouse MTP] | at least 30% |
| 144503 (eG*eT*eT*eA*eT*d[5mC]*dA*d[5mC]*d[5mC]*dA*d[5mC]*dA*dG*d[5mC]*d[5mC]*eA*e[5mC]*e[5mC]*e[5mC]*eG; antisense) [compound 144503] | 50% |
| 144487 (e[5mC]*e[5mC]*e[5mC]*eA*eG*dG*dA*dT*d[5mC]*dA*dG*d[5mC]*dT*dT*d[5mC]*eT*eT*eA*eG*e[5mC]; antisense) [compound 144487] | 19% |
| GTGGCTGACGGGCCCTTCTC (all phosphorothioate, sugars by position and methylation of C not given here; 2'-MOE wings and deoxy gap) [ISIS 144489, 2′-MOE gapmer phosphorothioate antisense oligonucleotide to mouse MTP] | at least 30% |
| 144476 (e[5mC]*e[5mC]*e[5mC]*eA*eG*dA*dG*dA*dT*dA*dT*d[5mC]*dT*dA*d[5mC]*e[5mC]*eT*e[5mC]*eG*eT; antisense) [compound 144476] | 19% |
| 144471 (e[5mC]*eA*eT*e[5mC]*eA*d[5mC]*d[5mC]*dA*dT*d[5mC]*dA*dG*dG*dA*dT*eT*e[5mC]*e[5mC]*eT*e[5mC]; antisense) [compound 144471] | 21% |
| CCCTTTCACCACGCTGACAG (all phosphorothioate, sugars by position and methylation of C not given here; 2'-MOE wings and deoxy gap) [ISIS 144500, 2′-MOE gapmer phosphorothioate antisense oligonucleotide to mouse MTP] | at least 30% |
| 144484 (e[5mC]*e[5mC]*eT*eG*eG*dA*dG*dT*dA*dT*dG*dA*dT*dA*d[5mC]*eT*eG*e[5mC]*eT*eG; antisense) [compound 144484] | 48% |
| 144489 (eG*eT*eG*eG*e[5mC]*dT*dG*dA*d[5mC]*dG*dG*dG*d[5mC]*d[5mC]*d[5mC]*eT*eT*e[5mC]*eT*e[5mC]; antisense) [compound 144489] | 42% |
| 144492 (eT*eG*e[5mC]*eA*e[5mC]*dA*dA*d[5mC]*dG*dG*dT*dG*dA*dG*d[5mC]*eA*eT*eG*eT*eA; antisense) [compound 144492] | 39% |
